Measurements from article PMC3326641 (Journal of Medicinal Chemistry, 2012).

Biological target: T1, TrxR (rat liver thioredoxin reductase) (Rattus norvegicus, UniProt O89049)
T1 sequence (O89049 1-499): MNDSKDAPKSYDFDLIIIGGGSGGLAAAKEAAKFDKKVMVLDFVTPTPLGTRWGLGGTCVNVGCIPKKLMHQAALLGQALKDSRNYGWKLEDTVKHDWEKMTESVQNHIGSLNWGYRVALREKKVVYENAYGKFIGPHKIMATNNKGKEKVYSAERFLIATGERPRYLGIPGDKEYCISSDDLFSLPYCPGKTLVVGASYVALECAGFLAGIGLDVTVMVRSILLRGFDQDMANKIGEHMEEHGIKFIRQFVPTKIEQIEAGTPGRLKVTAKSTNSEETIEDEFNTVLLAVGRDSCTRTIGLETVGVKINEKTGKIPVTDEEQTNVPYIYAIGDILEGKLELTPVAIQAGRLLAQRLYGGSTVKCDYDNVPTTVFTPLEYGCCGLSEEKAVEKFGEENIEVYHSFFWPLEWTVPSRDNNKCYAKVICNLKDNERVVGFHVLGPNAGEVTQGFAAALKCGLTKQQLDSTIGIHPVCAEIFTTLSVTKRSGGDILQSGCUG
Assay: DTNB reduction, absorbance at […] nm
Format: biochemical

## CC(C)(C)OC(=O)n1ccc2c[c]([Au-][P+](C3CCCCC3)(C3CCCCC3)C3CCCCC3)ccc21 [compound 4, [5-{Tricyclohexylphosphine gold(I)}-tert-butyl 1H-indole-1-carboxylate]]
  inhibition at 40 µM: 39%
